One assay concerns HEK293. Put plainly: Induction of VHL-mediated SGK3 degradation in HEK293 cells at 10 uM incubated for 48 hrs by immunoblot analysis relative to control. Format: cell-based. The note with it: Homo sapiens. In general terms: In western blotting, separated proteins are transferred to a membrane and probed.
As for `Cc1ccc(F)c(S(=O)(=O)Nc2ccc(-c3nc(OC[C@H]4CN(CCOCCOCCOCCOCCOCC(=O)N[C@H](C(=O)N5C[C@H](O)C[C@H]5C(=O)NCc5ccc(-c6scnc6C)cc5)C(C)(C)C)CCO4)c4cn[nH]c4n3)cc2)c1`, the Activity is above 50%.

`COc1ccc(Cl)c(S(=O)(=O)Nc2ccc(-c3nc(OC[C@H]4CN(CCCCCCOCCCCCCOCC(=O)N[C@H](C(=O)N5C[C@H](O)C[C@H]5C(=O)NCc5ccc(-c6scnc6C)cc5)C(C)(C)C)CCO4)c4c(C)n[nH]c4n3)cc2)c1` displayed an Activity above 50%.

`Cc1ccc(F)c(S(=O)(=O)Nc2ccc(-c3nc(OC[C@H]4CN(CCCCCCOCCOCCOCCOCC(=O)N[C@H](C(=O)N5C[C@H](O)C[C@H]5C(=O)NCc5ccc(-c6scnc6C)cc5)C(C)(C)C)CCO4)c4cn[nH]c4n3)cc2)c1` registered an Activity above 50%.

`Cc1ccc(F)c(S(=O)(=O)Nc2ccc(-c3nc(OC[C@H]4CN(CCOCCOCCOCC(=O)N[C@H](C(=O)N5C[C@H](O)C[C@H]5C(=O)NCc5ccc(-c6scnc6C)cc5)C(C)(C)C)CCO4)c4cn[nH]c4n3)cc2)c1` had an Activity above 50%.

The molecule `Cc1ccc(F)c(S(=O)(=O)Nc2ccc(-c3nc(OC[C@H]4CN(CCOCCOCC(=O)N[C@H](C(=O)N5C[C@H](O)C[C@H]5C(=O)NCc5ccc(-c6scnc6C)cc5)C(C)(C)C)CCO4)c4cn[nH]c4n3)cc2)c1` registered an Activity above 50%.

The molecule `Cc1ccc(F)c(S(=O)(=O)Nc2ccc(-c3nc(OC[C@H]4CN(CCCCCCOCCCCCCOCC(=O)N[C@H](C(=O)N5C[C@H](O)C[C@H]5C(=O)NCc5ccc(-c6scnc6C)cc5)C(C)(C)C)CCO4)c4cn[nH]c4n3)cc2)c1` returned an Activity above 50%.

`Cc1ccc(F)c(S(=O)(=O)Nc2ccc(-c3nc(OC[C@H]4CN(CCOCCOCCOCCOCC(=O)N[C@H](C(=O)N5C[C@H](O)C[C@H]5C(=O)NCc5ccc(-c6scnc6C)cc5)C(C)(C)C)CCO4)c4cn[nH]c4n3)cc2)c1` returned an Activity above 50%.

The molecule `COc1ccc(Cl)c(S(=O)(=O)Nc2ccc(-c3nc(OC[C@H]4CN(CCCCCCOCCOCCOCCOCC(=O)N[C@H](C(=O)N5C[C@H](O)C[C@H]5C(=O)NCc5ccc(-c6scnc6C)cc5)C(C)(C)C)CCO4)c4c(C)n[nH]c4n3)cc2)c1` registered an Activity above 50%.

In the case of `Cc1ccc(F)c(S(=O)(=O)Nc2ccc(-c3nc(OC[C@H]4CN(CCCCCCOCCOCCOCC(=O)N[C@H](C(=O)N5C[C@H](O)C[C@H]5C(=O)NCc5ccc(-c6scnc6C)cc5)C(C)(C)C)CCO4)c4cn[nH]c4n3)cc2)c1`, the Activity is above 50%.

Another assay deals with Protein cereblon/Tyrosine-protein kinase ABL1/Breakpoint cluster region protein (Homo sapiens) (UniProt P00519+P11274+Q96SW2). Nature of the assay: Induction of CRBN-mediated BCR-ABL degradation in human K562 cells at 1 uM incubated for 24 hrs by Western blot analysis relative to control. It is filed as cell-based.
Chain of Protein cereblon/Tyrosine-protein kinase ABL1/Breakpoint cluster region protein (Homo sapiens) (P00519 whole entry, looked up): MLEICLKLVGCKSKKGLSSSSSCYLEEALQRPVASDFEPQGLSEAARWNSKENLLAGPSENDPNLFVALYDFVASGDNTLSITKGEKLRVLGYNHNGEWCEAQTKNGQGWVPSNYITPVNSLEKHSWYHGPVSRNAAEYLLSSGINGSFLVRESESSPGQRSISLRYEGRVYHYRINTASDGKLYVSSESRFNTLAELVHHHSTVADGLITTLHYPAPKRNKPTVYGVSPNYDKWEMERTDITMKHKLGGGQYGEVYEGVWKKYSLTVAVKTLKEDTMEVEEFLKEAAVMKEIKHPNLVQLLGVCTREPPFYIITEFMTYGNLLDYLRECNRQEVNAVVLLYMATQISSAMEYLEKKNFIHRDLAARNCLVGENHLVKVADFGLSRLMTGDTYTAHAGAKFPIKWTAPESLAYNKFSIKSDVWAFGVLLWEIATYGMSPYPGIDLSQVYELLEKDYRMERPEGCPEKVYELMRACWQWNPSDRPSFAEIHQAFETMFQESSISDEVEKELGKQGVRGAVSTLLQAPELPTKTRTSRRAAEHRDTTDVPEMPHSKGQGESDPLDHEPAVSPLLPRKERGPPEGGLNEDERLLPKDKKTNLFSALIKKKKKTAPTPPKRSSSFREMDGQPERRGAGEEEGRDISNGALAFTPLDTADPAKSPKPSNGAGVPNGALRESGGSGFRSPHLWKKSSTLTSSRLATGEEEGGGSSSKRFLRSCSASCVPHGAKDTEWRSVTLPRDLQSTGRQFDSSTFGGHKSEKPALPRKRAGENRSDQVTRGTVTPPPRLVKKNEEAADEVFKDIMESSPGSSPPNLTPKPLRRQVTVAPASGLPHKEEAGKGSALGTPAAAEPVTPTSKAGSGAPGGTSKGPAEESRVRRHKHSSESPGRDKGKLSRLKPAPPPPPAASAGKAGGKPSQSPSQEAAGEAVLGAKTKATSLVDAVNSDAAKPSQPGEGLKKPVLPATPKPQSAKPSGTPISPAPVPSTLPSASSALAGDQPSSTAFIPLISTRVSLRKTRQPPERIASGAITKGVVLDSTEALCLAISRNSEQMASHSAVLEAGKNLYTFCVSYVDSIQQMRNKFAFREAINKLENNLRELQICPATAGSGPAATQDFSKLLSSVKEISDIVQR
Chain of Protein cereblon/Tyrosine-protein kinase ABL1/Breakpoint cluster region protein (Homo sapiens) (P11274 whole entry, looked up): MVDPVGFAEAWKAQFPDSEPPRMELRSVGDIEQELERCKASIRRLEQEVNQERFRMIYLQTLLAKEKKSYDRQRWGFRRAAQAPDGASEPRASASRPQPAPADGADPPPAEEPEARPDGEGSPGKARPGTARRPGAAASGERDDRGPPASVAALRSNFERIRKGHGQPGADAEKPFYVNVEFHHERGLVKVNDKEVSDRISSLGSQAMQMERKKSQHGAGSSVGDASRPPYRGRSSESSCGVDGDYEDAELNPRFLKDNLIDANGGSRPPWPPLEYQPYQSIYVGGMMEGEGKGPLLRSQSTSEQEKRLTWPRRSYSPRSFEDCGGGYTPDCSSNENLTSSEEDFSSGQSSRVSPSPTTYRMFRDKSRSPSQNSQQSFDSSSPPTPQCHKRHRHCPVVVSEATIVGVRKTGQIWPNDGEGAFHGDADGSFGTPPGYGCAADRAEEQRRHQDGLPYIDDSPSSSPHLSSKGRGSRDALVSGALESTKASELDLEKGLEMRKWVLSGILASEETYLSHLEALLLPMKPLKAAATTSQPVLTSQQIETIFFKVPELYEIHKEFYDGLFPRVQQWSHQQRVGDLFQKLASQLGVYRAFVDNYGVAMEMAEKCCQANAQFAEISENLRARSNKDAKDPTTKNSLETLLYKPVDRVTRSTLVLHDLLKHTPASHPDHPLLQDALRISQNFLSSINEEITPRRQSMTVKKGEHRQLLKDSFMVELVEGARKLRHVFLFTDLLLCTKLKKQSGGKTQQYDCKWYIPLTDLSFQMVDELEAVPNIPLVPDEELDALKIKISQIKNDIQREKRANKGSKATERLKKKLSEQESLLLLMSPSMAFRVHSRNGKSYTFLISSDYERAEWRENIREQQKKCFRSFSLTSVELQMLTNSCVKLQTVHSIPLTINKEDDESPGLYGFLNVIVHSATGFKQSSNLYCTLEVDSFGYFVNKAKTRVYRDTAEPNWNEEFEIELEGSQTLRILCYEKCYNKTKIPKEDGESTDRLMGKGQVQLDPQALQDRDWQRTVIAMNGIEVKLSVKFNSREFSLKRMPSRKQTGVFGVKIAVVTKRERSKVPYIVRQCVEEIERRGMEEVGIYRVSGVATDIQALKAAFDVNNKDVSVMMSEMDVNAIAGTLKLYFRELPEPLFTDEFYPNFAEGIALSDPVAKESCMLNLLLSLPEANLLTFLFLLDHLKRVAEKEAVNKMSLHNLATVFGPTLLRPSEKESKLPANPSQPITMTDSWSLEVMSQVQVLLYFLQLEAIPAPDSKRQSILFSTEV
Chain of Protein cereblon/Tyrosine-protein kinase ABL1/Breakpoint cluster region protein (Homo sapiens) (Q96SW2 whole entry, looked up): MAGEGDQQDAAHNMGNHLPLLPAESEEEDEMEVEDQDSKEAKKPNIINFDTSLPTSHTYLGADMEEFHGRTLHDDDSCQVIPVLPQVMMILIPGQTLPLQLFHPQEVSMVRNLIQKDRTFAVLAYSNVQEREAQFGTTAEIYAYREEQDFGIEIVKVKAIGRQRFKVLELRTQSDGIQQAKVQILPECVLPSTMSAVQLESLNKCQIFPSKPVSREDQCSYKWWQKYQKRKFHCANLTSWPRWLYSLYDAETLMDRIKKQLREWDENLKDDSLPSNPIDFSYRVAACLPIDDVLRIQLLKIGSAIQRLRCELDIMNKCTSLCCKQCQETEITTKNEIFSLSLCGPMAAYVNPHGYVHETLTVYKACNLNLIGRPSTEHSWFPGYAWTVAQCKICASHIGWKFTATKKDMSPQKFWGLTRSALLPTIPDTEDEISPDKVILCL
Conditions: not given
`Cc1nc(Nc2ncc(C(=O)Nc3c(C)cccc3Cl)s2)cc(N2CCN(CCCCCCOCCOCCOCCCCCC(=O)Nc3cccc4c3C(=O)N(C3CCC(=O)NC3=O)C4=O)CC2)n1` (stereo not given) yielded an Activity above 60%.

These data come from ChEMBL document CHEMBL4765444, “Chimera induced protein degradation: PROTACs and beyond” (Eur J Med Chem, 2020).
